pIC50: −log10 of the molar value.
The molecules below were run against T1, human S1P1 receptors (Homo sapiens, UniProt P21453) (assay: S1P1R antagonist assay (fluorescent membrane potential dye, cAMP readout)). Conditions: HEK293 cells expressing human S1P1 receptors and CNG channel; 500 nM NECA; S1P1R agonist 10 nM; 90 minutes; read-out: EC50 or IC50 value.
T1 construct: host or cells: HEK293
Assay type: cell-based

T1 sequence (P21453 whole entry): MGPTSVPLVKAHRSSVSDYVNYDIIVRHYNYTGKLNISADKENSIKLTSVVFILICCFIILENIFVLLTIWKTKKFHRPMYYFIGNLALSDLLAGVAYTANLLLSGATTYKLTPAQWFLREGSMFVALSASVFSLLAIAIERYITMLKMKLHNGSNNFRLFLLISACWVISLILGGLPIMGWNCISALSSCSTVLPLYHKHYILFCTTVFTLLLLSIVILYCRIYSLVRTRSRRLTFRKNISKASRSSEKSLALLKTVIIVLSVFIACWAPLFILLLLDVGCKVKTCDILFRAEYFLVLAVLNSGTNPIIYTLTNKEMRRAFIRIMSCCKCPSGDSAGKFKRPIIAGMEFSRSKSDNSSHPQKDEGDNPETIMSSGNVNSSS

| SMILES | pIC50 |
| --- | --- |
| CN(C)C(=O)CCC(=O)N1C[C@H](Cc2ccccc2)C[C@H]1C(=O)Nc1ccc(Oc2ccc(F)cc2)cc1 [Compound 89, (2S,4R)-4-benzyl-1-(4-(dimethylamino)-4-oxobutanoyl)-N-(4-(4-fluorophenoxy)phenyl)pyrrolidine-2-carboxamide] | ≥ 6.52 |
| Cc1cc(CC(=O)N[C@@H](COCc2ccccc2)C(=O)Nc2ccc(Oc3ccc(F)cc3)cc2)[nH]n1 [Compound 166, (S)-3-(benzyloxy)-N-(4-(4-fluorophenoxy)phenyl)-2-(2-(3-methyl-1H-pyrazol-5-yl)acetamido)propanamide] | ≥ 6.52 |
| Cc1noc(C)c1CC(=O)N[C@@H](COCc1ccccc1)C(=O)Nc1ccc(Oc2ccc(F)cc2)cc1 [Compound 150, (S)-3-(benzyloxy)-2-(2-(3,5-dimethylisoxazol-4-yl)acetamido)-N-(4-(4-fluorophenoxy)phenyl)propanamide] | ≥ 6.52 |
| Cc1ccccc1C[C@@H]1C[C@@H](C(=O)Nc2ccc(Oc3ccc(F)cc3)cc2)N(C(=O)Cn2cncn2)C1 [Compound 55, (2S,4R)-1-(2-(1H-1,2,4-triazol-1-yl)acetyl)-N-(4-(4-fluorophenoxy)phenyl)-4-(2-methylbenzyl)pyrrolidine-2-carboxamide] | ≥ 6.52 |
| O=C(CSc1ncccn1)NC(COCc1ccccc1)C(=O)Nc1ccc(Oc2ccccc2)cc1 (centres unmarked) [Compound 331, N-(2-oxo-1-{[(phenylmethyl)oxy]methyl}-2-{[4-(phenyloxy)phenyl]amino}ethyl)-2-(pyrimidin-2-ylthio)acetamide] | < 6.00 |
| O=C(NC(COCc1ccccc1)C(=O)Nc1ccc(Oc2ccccc2)cc1)c1cccs1 (centres unmarked) [Compound 292, N-(2-oxo-1-{[(phenylmethyl)oxy]methyl}-2-{[4-(phenyloxy)phenyl]amino}ethyl)thiophene-2-carboxamide] | < 6.00 |
| O=C(CCCC(=O)c1cccs1)NC(COCc1ccccc1)C(=O)Nc1ccc(Oc2ccccc2)cc1 (centres unmarked) [Compound 323, 5-oxo-N-(2-oxo-1-{[(phenylmethyl)oxy]methyl}-2-{[4-(phenyloxy)phenyl]amino}ethyl)-5-(2-thienyl)pentanamide] | 6.00 to 6.52 |
| O=C(Cc1cccc(Br)c1)N[C@@H](COCc1ccccc1)C(=O)Nc1ccc(Oc2ccc(F)cc2)cc1 [Compound 244, (S)-3-(benzyloxy)-2-(2-(3-bromophenyl)acetamido)-N-(4-(4-fluorophenoxy)phenyl)propanamide] | 6.00 to 6.52 |
| Cc1cc(Br)ccc1C(=O)NC(COCc1ccccc1)C(=O)Nc1ccc(Oc2ccccc2)cc1 (centres unmarked) [Compound 311, 4-bromo-2-methyl-N-(2-oxo-1-{[(phenylmethyl)oxy]methyl}-2-{[4-(phenyloxy)phenyl]amino}ethyl)benzamide] | < 6.00 |
| O=C(CN1CCN(c2ncccc2C(F)(F)F)CC1)N[C@@H](COCc1ccccc1)C(=O)Nc1ccc(Oc2ccc(F)cc2)cc1 [Compound 112, (S)-3-(benzyloxy)-N-(4-(4-fluorophenoxy)phenyl)-2-(2-(4-(3-(trifluoromethyl)pyridin-2-yl)piperazin-1-yl)acetamido)propanamide] | < 6.00 |
| O=C(Nc1ccc(Oc2ccc(F)cc2)cc1)[C@@H]1C[C@@H](NCc2ccccc2)CN1C(=O)Cc1cnc[nH]1 [Compound 173, (2S,4R)-1-(2-(1H-imidazol-5-yl)acetyl)-4-(benzylamino)-N-(4-(4-fluorophenoxy)phenyl)pyrrolidine-2-carboxamide] | ≥ 6.52 |
| CC(C)=CCC[C@H](C)CC(=O)N[C@@H](COCc1ccccc1)C(=O)Nc1ccc(Oc2ccc(F)cc2)cc1 [Compound 248, (S)—N—((S)-3-(benzyloxy)-1-(4-(4-fluorophenoxy)phenylamino)-1-oxopropan-2-yl)-3,7-dimethyloct-6-enamide] | 6.00 to 6.52 |
| O=C(Cn1cncn1)N[C@@H](COCc1ccccc1OC(F)(F)F)C(=O)Nc1ccc(Oc2ccc(F)cc2)cc1 [Compound 139, (S)-2-(2-(1H-1,2,4-triazol-1-yl)acetamido)-N-(4-(4-fluorophenoxy)phenyl)-3-(2-(trifluoromethoxy)benzyloxy)propanamide] | ≥ 6.52 |
| O=C(Nc1ccc(Oc2ccc(F)cc2)cc1)[C@@H]1C[C@@H](Cc2ccccc2Cl)CN1C(=O)Cn1cncn1 [Compound 57, (2S,4R)-1-(2-(1H-1,2,4-triazol-1-yl)acetyl)-4-(2-chlorobenzyl)-N-(4-(4-fluorophenoxy)phenyl)pyrrolidine-2-carboxamide] | ≥ 6.52 |
| CN(C)c1ccc(CC(=O)N2C[C@H](Cc3ccccc3)C[C@H]2C(=O)Nc2ccc(Oc3ccc(F)cc3)cc2)cc1 [Compound 35, (2S,4R)-4-benzyl-1-(2-(4-(dimethylamino)phenyl)acetyl)-N-(4-(4-fluorophenoxy)phenyl)pyrrolidine-2-carboxamide] | ≥ 6.52 |
| O=C(Nc1ccc(Oc2ccc(F)cc2)cc1)[C@@H]1C[C@@H](Cc2ccccc2)CN1C(=O)Cn1cncn1 [Compound 140, (2S,4R)-1-(2-(1H-1,2,4-triazol-1-yl)acetyl)-4-benzyl-N-(4-(4-fluorophenoxy)phenyl)pyrrolidine-2-carboxamide] | ≥ 6.52 |
| CC(=O)c1ccc(N2CCN(CC(=O)N[C@@H](COCc3ccccc3)C(=O)Nc3ccc(Oc4ccc(F)cc4)cc3)CC2)cc1 [Compound 229, (S)-2-(2-(4-(4-acetylphenyl)piperazin-1-yl)acetamido)-3-(benzyloxy)-N-(4-(4-fluorophenoxy)phenyl)propanamide] | 6.00 to 6.52 |
| O=C(Nc1ccc(Oc2ccc(F)cc2)cc1)[C@@H]1C[C@@H](Cc2cccc(Cl)c2)CN1C(=O)Cn1nccn1 [Compound 268, (2S,4R)-1-(2-(2H-1,2,3-triazol-2-yl)acetyl)-4-(3-chlorobenzyl)-N-(4-(4-fluorophenoxy)phenyl)pyrrolidine-2-carboxamide] | ≥ 6.52 |
| CC(=O)OCC(=O)NC(COCc1ccccc1)C(=O)Nc1ccc(Oc2ccccc2)cc1 (centres unmarked) [Compound 388, 2-oxo-2-[(2-oxo-1-{[(phenylmethyl)oxy]methyl}-2-{[4-(phenyloxy)phenyl]amino}ethyl)amino]ethyl acetate] | < 6.00 |
| O=C(Cc1cnc[nH]1)NC(COCc1ccccc1)C(=O)Nc1ccc(Oc2ccccc2)cc1 (centres unmarked) [Compound 142, 2-(2-(1H-imidazol-5-yl)acetamido)-3-benzyloxy-N-(4-phenoxyphenyl)propanamide] | ≥ 6.52 |
| O=C(Nc1ccc(Oc2ccc(F)cc2)cc1)[C@@H]1C[C@@H](Cc2cccc(F)c2)CN1C(=O)Cn1nccn1 [Compound 49, (2S,4R)-1-(2-(2H-1,2,3-triazol-2-yl)acetyl)-4-(3-fluorobenzyl)-N-(4-(4-fluorophenoxy)phenyl)pyrrolidine-2-carboxamide] | ≥ 6.52 |
| CC(C)(C(=O)N[C@@H](COCc1ccccc1)C(=O)Nc1ccc(Oc2ccc(F)cc2)cc1)n1cncn1 [Compound 255, (S)-3-(benzyloxy)-N-(4-(4-fluorophenoxy)phenyl)-2-(2-methyl-2-(1H-1,2,4-triazol-1-yl)propanamido)propanamide] | 6.00 to 6.52 |
| O=C(Nc1ccc(Oc2ccc(F)cc2)cc1)[C@@H]1C[C@@H](c2ccccc2)CN1C(=O)Cn1cncn1 [Compound 78, (2S,4S)-1-(2-(1H-1,2,4-triazol-1-yl)acetyl)-N-(4-(4-fluorophenoxy)phenyl)-4-phenylpyrrolidine-2-carboxamide] | 6.00 to 6.52 |

— patent publication US8791102B2, “Acetanilide sphingosine-1-phosphate receptor antagonists” (Exelixis, Inc., priority 2008, dated 2014)
